# Data reported in patent US4923697A, “Antioxidant compositions and methods” (Bar-Ilan University, priority 1986, dated 1990).
# Test system: skin of adult mice
# Assay: TBA test of peroxide level in skin of adult shaved mice
# Assay type: in vivo, mouse
# Settings: 0.1% in Oil of Olay
# Description: Samples of creams and appropriate controls were applied to mice or rat skin for a fixed period. The application was done once a day. Experiments were terminated by killing the animal, peeling the skin and freezing it in liquid nitrogen. Samples of the frozen skin were homogenized in 0.2.M phosphate buffer, pH 6.5. After centrifugation, the supernatant was collected and analyzed for the peroxide value using the TBA (thiobarbituric acid) test as described by Sinnhuber et. al, Food Res. 23: 620 (1958).
# In these experiments adult mice (2 months old) were treated as described in Example 2. The grown mice were shaved before applying the creams to the skin. In this experiment the antioxidant was dissolved in Oil of Olay. Mice were sacrificed after 21 days.
row,Structure (SMILES),reduction of the level of peroxides in the skin
1,"Cc1c(C)c2c(c(C)c1O)CCC(C)(CCCC(C)CCCC(C)CCCC(C)C)O2 (stereo not drawn) [alpha tocopherol, alpha-tocopherol]",no reduction of the level of peroxides was observed
2,"COc1ccc(O)c(C(C)(C)C)c1 [BHA, butylated hydroxy anisole]",no reduction of the level of peroxides was observed
3,"Cc1cc(C(C)(C)C)c(O)c(C(C)(C)C)c1 [BHT, butylated hydroxy toluene]",no reduction of the level of peroxides was observed
